The record followed here is ChEMBL document CHEMBL2390893, “Natural product hybrid and its superacid synthesized analogues: dodoneine and its derivatives show selective inhibition of carbonic anhydrase isoforms I, III, XIII and XIV” (Bioorg Med Chem, 2013).

Each structure is given as a SMILES string. pKi: −log10 of the molar value. Activity calls are given as the source filed them. No cut-off for these calls is given here.

In assay [1] the target is T1, Carbonic anhydrase 14 (Homo sapiens, UniProt Q9ULX7). The assay can be described thus: Inhibition of human carbonic anhydrase 14 preincubated for 15 mins by stopped flow CO2 hydrase assay.
The target in assay [2] is T2, Carbonic anhydrase 1 (Homo sapiens, UniProt P00915). As to the kind of experiment: Inhibition of human carbonic anhydrase 1 preincubated for 15 mins by stopped flow CO2 hydrase assay.
Target sequence in this assay (P00915 whole entry): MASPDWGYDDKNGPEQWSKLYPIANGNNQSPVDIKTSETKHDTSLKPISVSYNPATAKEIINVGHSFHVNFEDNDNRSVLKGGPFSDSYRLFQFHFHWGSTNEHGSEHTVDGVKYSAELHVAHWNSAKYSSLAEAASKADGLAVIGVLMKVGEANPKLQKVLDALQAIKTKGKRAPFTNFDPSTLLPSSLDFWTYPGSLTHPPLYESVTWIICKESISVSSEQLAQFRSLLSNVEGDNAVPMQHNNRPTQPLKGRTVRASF
In assay [3] the target is T3, Carbonic anhydrase 7 (Homo sapiens, UniProt P43166). The assay can be described thus: Inhibition of human carbonic anhydrase 7 at >100 uM preincubated for 15 mins by stopped flow CO2 hydrase assay.
Assay [4] addresses T4, Carbonic anhydrase 9 (Homo sapiens, UniProt Q16790). The assay can be described thus: Inhibition of human carbonic anhydrase 9 at >100 uM preincubated for 15 mins by stopped flow CO2 hydrase assay.
Assay [5] has as its target T5, Carbonic anhydrase 5B, mitochondrial (Homo sapiens, UniProt Q9Y2D0). The assay can be described thus: Inhibition of human carbonic anhydrase 5b at >100 uM preincubated for 15 mins by stopped flow CO2 hydrase assay.
Assay [6] has as its target T6, Carbonic anhydrase 5A, mitochondrial (Homo sapiens, UniProt P35218). As to the kind of experiment: Inhibition of human carbonic anhydrase 5a at >100 uM preincubated for 15 mins by stopped flow CO2 hydrase assay.
The target of assay [7] is Carbonic anhydrase 6 (Homo sapiens) (UniProt P23280). The assay can be described thus: Inhibition of human carbonic anhydrase 6 at >100 uM preincubated for 15 mins by stopped flow CO2 hydrase assay.
Assay [8] addresses T7, Carbonic anhydrase 2 (Homo sapiens, UniProt P00918). As to the kind of experiment: Inhibition of human carbonic anhydrase 2 at >100 uM preincubated for 15 mins by stopped flow CO2 hydrase assay.
The target in another assay is Carbonic anhydrase 13 (Mus musculus, UniProt Q9D6N1). As to the kind of experiment: Inhibition of mouse carbonic anhydrase 13 preincubated for 15 mins by stopped flow CO2 hydrase assay.
Assay [9] addresses T8, Carbonic anhydrase 3 (Homo sapiens, UniProt P07451). The assay can be described thus: Inhibition of human carbonic anhydrase 3 preincubated for 15 mins by stopped flow CO2 hydrase assay.
For assay [10], the target named is T9, Carbonic anhydrase 4 (Homo sapiens, UniProt P22748). The assay can be described thus: Inhibition of human carbonic anhydrase 4 preincubated for 15 mins by stopped flow CO2 hydrase assay.
The target in assay [11] is T10, Carbonic anhydrase 12 (Homo sapiens, UniProt O43570). The assay can be described thus: Inhibition of human carbonic anhydrase 12 at >100 uM preincubated for 15 mins by stopped flow CO2 hydrase assay.
In assay [12] the target is T1, Carbonic anhydrase 14. The assay can be described thus: Inhibition of human carbonic anhydrase 14 at >100 uM preincubated for 15 mins by stopped flow CO2 hydrase assay.
For assay [13], the target named is T2, Carbonic anhydrase 1. As to the kind of experiment: Inhibition of human carbonic anhydrase 1 at >100 uM preincubated for 15 mins by stopped flow CO2 hydrase assay.
Target sequence in this assay (P00915 2-261 limits assumed): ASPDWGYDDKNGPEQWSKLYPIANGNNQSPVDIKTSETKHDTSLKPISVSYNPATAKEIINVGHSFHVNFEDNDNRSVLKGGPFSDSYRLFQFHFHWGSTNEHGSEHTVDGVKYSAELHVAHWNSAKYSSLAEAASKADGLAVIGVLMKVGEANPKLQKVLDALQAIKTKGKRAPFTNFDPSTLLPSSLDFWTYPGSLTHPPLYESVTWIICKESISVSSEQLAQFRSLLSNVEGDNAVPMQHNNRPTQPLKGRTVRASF
In assay [14] the target is T9, Carbonic anhydrase 4. The assay can be described thus: Inhibition of human carbonic anhydrase 4 at >100 uM preincubated for 15 mins by stopped flow CO2 hydrase assay.
The target in assay [15] is T4, Carbonic anhydrase 9. As to the kind of experiment: Inhibition of human carbonic anhydrase 9 preincubated for 15 mins by stopped flow CO2 hydrase assay.
Assay [16] concerns the target T5, Carbonic anhydrase 5B, mitochondrial. As to the kind of experiment: Inhibition of human carbonic anhydrase 5b preincubated for 15 mins by stopped flow CO2 hydrase assay.
Assay [17] deals with T7, Carbonic anhydrase 2. As to the kind of experiment: Inhibition of human carbonic anhydrase 2 preincubated for 15 mins by stopped flow CO2 hydrase assay.
Assay [18] concerns the target T8, Carbonic anhydrase 3. The assay can be described thus: Inhibition of human carbonic anhydrase 3 at >100 uM preincubated for 15 mins by stopped flow CO2 hydrase assay.
For assay [19], the target named is T10, Carbonic anhydrase 12. As to the kind of experiment: Inhibition of human carbonic anhydrase 12 preincubated for 15 mins by stopped flow CO2 hydrase assay.
Assay [20] addresses T3, Carbonic anhydrase 7. As to the kind of experiment: Inhibition of human carbonic anhydrase 7 preincubated for 15 mins by stopped flow CO2 hydrase assay.
In assay [21] the target is T6, Carbonic anhydrase 5A, mitochondrial. The assay can be described thus: Inhibition of human carbonic anhydrase 5a preincubated for 15 mins by stopped flow CO2 hydrase assay.

Sequence of Carbonic anhydrase 6 (Homo sapiens) (P23280 whole entry): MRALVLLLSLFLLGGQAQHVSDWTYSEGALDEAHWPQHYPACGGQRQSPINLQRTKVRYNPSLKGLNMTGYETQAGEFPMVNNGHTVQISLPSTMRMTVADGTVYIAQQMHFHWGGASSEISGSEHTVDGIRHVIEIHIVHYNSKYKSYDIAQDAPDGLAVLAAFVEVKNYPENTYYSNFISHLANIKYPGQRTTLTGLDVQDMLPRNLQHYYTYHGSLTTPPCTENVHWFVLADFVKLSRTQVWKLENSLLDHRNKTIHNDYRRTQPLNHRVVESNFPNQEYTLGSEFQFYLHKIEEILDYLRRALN
T6 sequence (P35218 whole entry): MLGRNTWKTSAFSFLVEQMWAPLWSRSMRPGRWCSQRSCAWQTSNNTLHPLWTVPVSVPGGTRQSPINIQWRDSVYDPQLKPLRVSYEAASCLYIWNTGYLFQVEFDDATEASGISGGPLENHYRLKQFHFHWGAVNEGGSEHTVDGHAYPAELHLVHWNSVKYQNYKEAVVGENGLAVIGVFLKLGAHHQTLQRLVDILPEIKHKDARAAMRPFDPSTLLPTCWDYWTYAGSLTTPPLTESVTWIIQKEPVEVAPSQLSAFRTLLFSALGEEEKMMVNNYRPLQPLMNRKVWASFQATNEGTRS
T1 sequence (Q9ULX7 whole entry): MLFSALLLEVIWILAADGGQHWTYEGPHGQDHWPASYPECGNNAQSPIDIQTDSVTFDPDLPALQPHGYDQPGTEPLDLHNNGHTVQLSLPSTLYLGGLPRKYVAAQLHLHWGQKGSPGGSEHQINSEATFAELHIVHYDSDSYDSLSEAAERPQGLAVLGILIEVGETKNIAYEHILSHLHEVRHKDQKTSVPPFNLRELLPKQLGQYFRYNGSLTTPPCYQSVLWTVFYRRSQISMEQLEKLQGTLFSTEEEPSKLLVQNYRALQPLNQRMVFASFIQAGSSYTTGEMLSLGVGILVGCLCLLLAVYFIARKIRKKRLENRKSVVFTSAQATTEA
T3 sequence (P43166 whole entry): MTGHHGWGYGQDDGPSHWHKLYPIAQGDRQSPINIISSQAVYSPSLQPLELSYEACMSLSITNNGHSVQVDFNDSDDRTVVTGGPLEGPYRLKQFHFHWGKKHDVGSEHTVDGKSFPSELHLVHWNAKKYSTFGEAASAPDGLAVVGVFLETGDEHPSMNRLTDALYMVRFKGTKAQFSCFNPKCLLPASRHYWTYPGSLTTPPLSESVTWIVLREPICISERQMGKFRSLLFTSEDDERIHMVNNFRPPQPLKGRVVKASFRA
Sequence of Carbonic anhydrase 13 (Q9D6N1 whole entry): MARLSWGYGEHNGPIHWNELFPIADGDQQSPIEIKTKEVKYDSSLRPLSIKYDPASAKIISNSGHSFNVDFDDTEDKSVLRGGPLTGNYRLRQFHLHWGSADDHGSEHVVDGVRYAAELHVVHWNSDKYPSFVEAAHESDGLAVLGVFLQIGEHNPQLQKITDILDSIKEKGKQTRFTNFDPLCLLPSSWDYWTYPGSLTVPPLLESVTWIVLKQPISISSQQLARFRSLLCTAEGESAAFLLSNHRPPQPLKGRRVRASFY
T5 sequence (Q9Y2D0 whole entry): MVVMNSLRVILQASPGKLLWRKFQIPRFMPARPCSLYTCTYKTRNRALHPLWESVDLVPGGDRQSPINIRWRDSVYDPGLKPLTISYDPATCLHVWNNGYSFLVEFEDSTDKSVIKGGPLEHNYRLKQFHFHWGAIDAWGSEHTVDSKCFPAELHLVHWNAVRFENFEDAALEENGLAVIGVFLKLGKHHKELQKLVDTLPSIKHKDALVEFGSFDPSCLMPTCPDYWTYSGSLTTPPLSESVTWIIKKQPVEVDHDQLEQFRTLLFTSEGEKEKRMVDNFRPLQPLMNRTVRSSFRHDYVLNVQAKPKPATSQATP
T9 sequence (P22748 whole entry): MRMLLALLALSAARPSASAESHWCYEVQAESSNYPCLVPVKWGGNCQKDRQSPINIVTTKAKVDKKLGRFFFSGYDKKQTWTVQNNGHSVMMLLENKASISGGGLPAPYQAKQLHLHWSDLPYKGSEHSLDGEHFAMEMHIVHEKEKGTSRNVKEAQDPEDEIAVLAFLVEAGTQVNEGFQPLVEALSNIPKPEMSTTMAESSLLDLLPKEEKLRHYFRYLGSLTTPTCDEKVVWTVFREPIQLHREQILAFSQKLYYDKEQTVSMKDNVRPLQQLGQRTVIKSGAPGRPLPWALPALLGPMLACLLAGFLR
T8 sequence (P07451 whole entry): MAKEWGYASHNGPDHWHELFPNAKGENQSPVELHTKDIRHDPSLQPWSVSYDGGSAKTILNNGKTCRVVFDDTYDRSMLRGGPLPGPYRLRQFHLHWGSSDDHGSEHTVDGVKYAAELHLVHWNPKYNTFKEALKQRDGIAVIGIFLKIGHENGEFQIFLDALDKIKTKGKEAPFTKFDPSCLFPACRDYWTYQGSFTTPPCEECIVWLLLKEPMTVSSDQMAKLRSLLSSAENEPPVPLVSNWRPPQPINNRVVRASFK
T10 sequence (O43570 whole entry): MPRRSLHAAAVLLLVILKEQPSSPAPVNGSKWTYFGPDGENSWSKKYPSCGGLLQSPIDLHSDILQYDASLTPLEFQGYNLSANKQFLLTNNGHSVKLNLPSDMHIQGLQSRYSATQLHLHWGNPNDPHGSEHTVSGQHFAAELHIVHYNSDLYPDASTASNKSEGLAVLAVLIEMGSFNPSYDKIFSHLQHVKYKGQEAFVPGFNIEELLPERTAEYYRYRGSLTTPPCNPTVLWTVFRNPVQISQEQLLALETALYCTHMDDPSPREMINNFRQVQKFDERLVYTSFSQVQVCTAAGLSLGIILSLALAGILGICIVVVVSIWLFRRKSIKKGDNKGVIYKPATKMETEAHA

As to `O=C1C=CC[C@H](C[C@@H](O)CCc2ccc(O)cc2)O1`, the negative logarithm of the Ki (pKi) (usually −log10 of the Ki, conventionally taken in molar units) was 5.03 on Carbonic anhydrase 14 [1]; 5.26 on Carbonic anhydrase 1 [2]; 5.03 at Carbonic anhydrase 13; 4.99 at Carbonic anhydrase 3 [9]; 5.02 at Carbonic anhydrase 4 [10]. In addition, the inhibition result (on Carbonic anhydrase 7 [3]; at Carbonic anhydrase 9 [4]; in [5]; in assay [6]; in [7]; at Carbonic anhydrase 2 [8]) was “inactive” throughout. Further, on Carbonic anhydrase 12 [11], the inhibition entry was “inactive”.

As for `O=C1C[C@H]2C[C@H](C[C@H](CCc3ccc(O)cc3)O2)O1`, the inhibition result (at Carbonic anhydrase 14 [12]; on Carbonic anhydrase 7 [3]; at Carbonic anhydrase 9 [4]; in assay [5]; in assay [6]; in [7]) was “inactive” in each case. For the same compound, the inhibition result at Carbonic anhydrase 2 [8], on Carbonic anhydrase 1 [13], at Carbonic anhydrase 4 [14] and at Carbonic anhydrase 12 [11] was “inactive” each time. Moreover, the pKi on Carbonic anhydrase 13 was 6.04; on Carbonic anhydrase 3 [9] it was 4.97.

As for `O=C1C[C@H]2C[C@H](C[C@H](CCc3ccc(O)cc3O)O2)O1`, the inhibition result (on Carbonic anhydrase 14 [12]; at Carbonic anhydrase 7 [3]; at Carbonic anhydrase 9 [4]; in assay [5]; in assay [6]; in assay [7]) was “inactive” in each case. For the same compound, the inhibition entry on Carbonic anhydrase 2 [8], at Carbonic anhydrase 1 [13], at Carbonic anhydrase 4 [14] and on Carbonic anhydrase 12 [11] was “inactive” throughout. The negative-log Ki (pKi) on Carbonic anhydrase 13 is 6.47; at Carbonic anhydrase 3 [9], 5.29.

On to `O=C1C=CC[C@H](C[C@H](F)CCc2ccc(O)cc2)O1`, for which the pKi is 5.45 at Carbonic anhydrase 9 [15]; 5.87 in [16]; 5.61 on Carbonic anhydrase 14 [1]; 4.43 on Carbonic anhydrase 2 [17]; 6.89 at Carbonic anhydrase 1 [2]; 5.83 at Carbonic anhydrase 12 [19]. Moreover, the negative-log Ki (pKi) on Carbonic anhydrase 7 [20] is 4.60; at Carbonic anhydrase 13, 6.02; in assay [21], 5.15; on Carbonic anhydrase 4 [10], 5.27. For the same compound, the inhibition entry (at Carbonic anhydrase 3 [18]; in assay [7]) was “inactive” each time.

`O=C1C=CC[C@H](C[C@@H](O)CCc2ccc(O)cc2O)O1`: the pKi on Carbonic anhydrase 9 [15] is 4.49; in [16] it was 4.86; at Carbonic anhydrase 14 [1] it was 5.14; on Carbonic anhydrase 1 [2], 6.42; on Carbonic anhydrase 12 [19], 4.61; on Carbonic anhydrase 13, 5.09. The pKi is 4.67 in assay [21] and 5.39 at Carbonic anhydrase 4 [10]. The inhibition result (at Carbonic anhydrase 3 [18]; on Carbonic anhydrase 7 [3]; in assay [7]; at Carbonic anhydrase 2 [8]) was “inactive” in each case.

For the compound `O=C1C=CC[C@H](C[C@@H](O)CCc2cc(Br)c(O)cc2Br)O1`, the pKi at Carbonic anhydrase 9 [15] is 4.80; in assay [16], 5.20; at Carbonic anhydrase 14 [1] it was 4.90; on Carbonic anhydrase 2 [17], 4.66; on Carbonic anhydrase 1 [2], 6.12; at Carbonic anhydrase 12 [19] it was 4.97. The pKi at Carbonic anhydrase 13 is 5.10; in assay [21], 5.07; at Carbonic anhydrase 4 [10], 4.86. Moreover, the inhibition result (at Carbonic anhydrase 3 [18]; at Carbonic anhydrase 7 [3]; in [7]) was “inactive” in each case.
